Columns and labels:
[1] = biological target: T1, P2X4Rs (Rattus norvegicus, UniProt P51577); experiment: Intracellular Ca2+ imaging (fura-2) of ATP-evoked response in primary cultured microglia; assay type: cell-based; details: for ATP-evoked increase in 340/360 ratio (fura-2): 10 min before and during ATP (50 μM, 10 s)
T1 construct: mixed glial culture was prepared from neonatal Wistar rats; endogenous in cells; host or cells: primary cultured microglia from neonatal Wistar rats
T1 sequence (P51577 1-388): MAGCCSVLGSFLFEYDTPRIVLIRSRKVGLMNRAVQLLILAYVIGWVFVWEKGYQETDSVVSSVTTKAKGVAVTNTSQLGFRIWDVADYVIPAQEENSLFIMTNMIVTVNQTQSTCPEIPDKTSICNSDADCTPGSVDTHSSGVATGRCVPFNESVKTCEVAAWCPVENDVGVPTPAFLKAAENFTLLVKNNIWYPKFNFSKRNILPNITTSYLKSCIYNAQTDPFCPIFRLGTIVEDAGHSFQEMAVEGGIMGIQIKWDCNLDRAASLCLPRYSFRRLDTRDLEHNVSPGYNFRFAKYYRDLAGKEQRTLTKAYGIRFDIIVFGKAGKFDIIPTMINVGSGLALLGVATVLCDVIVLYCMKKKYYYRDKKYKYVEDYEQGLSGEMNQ
Description: As P2X4Rs are reported to be highly permeable to Ca^2+ (Khakh, B. S. et al. International union of pharmacology. XXIV. Current status of the nomenclature and properties of P2X receptors and their subunits. Pharmacol Rev 53, 107-118, 2001), we investigated whether the P2X4Rs on these microglia were functional by applying the agonist ATP and monitoring the level of intracellular Ca^2+ ([Ca^2+]i) in individual cells using the Ca^2+-sensitive fluorescent dye fura-2.
The detailed procedures are as follows. Rat primary cultured microglia were prepared according to the method described previously (Nakajima, K. et al. Identification of elastase as a secretory protease from cultured rat microglia. J Neurochem 58, 1401-1408, 1992). In brief, mixed glial culture was prepared from neonatal Wistar rats and maintained for 10-16 days in DMEM with 10% fetal bovine serum. Microglia were obtained as floating cells over the mixed glial culture. The floating cells were collected by a gentle shake and transferred to appropriate dishes or glasses, and then the microglia attached to them were used for RT-PCR, intracellular Ca^2+ imaging, immunocytochemistry.

[2] = test system: male Wistar rats with L5 spinal nerve injury; experiment: Tactile allodynia after L5 spinal nerve injury, von Frey paw withdrawal threshold, intrathecal injection; assay type: in vivo, rat; details: for paw withdrawal threshold 45 min after injection: ipsilateral hindpaw
Method: (§1) We used the spinal nerve injury model (Kim, S. H. & Chung, J. M. An experimental model for peripheral neuropathy produced by segmental spinal nerve ligation in the rat. Pain 50, 355-363. (1992)) with some modifications; a unilateral L5 spinal nerve of male Wistar rats was tightly ligated and cut just distal to the ligature. The mechanical allodynia was assessed in naive and nerve-injured rats using calibrated von Frey filaments (0.4-15.1 g). Rats were injected intrathecally with P2XR antagonists, TNP-ATP and PPADS (Sigma-RBI), and antisense and mismatch ODN. For the experiments in FIG. 5, the cultured microglia (see Supplementary Information 1) that had been pre-incubated with or without ATP (50 μM) were injected intrathecally in normal rats. Full details of experimental methods are as follows.
(§2) A unilateral L5 spinal nerve of male Wistar rats was tightly ligated and cut just distal to the ligature. To assess the mechanical allodynia, the calibrated von Frey filaments (0.4-15.1 g) were applied to the plantar surface of the hindpaw from below the mesh floor. The 50% paw withdrawal threshold was determined using the up-down method (Chaplan, S. R., Bach, F. W., Pogrel, J. W., Chung, J. M. & Yaksh, T. L. Quantitative assessment of tactile allodynia in the rat paw. J Neurosci Methods 53, 55-63, 1994). Rats were implanted with a PE-10 polyethylene tube to the lumber enlargement (Yaksh, T. L., Jessell, T. M., Gamse, R., Mudge, A. W. & Leeman, S. E. Intrathecal morphine inhibits substance P release from mammalian spinal cord in vivo. Nature 286, 155-157, 1980) for intrathecal injection of P2XR antagonists [2′,3′-O-(2,4,6-trinitrophenyl)adenosine 5′-triphosphate (TNP-ATP) (Sigma-RBI) and pyridoxalphosphate-6-azophenyl-2′,4′-disulphonic acid (PPADS) (Sigma-RBI)], P2X4R antisense or mismatch ODN. We confirmed that PPADS and TNP-ATP used in the present study show biological activity to inhibit effects of α,β-methylene ATP in vitro and in vivo. The 16-base antisense ODN endcapped with phosphorothioate linkages were designed according to the primary sequence of the rat P2X4R cDNA (X87763). The sequence of the P2X4R antisense and mismatch ODN was 5′-CAGCCCGCCATGGCTC-3′ (SEQ ID NO: 3) and 5′-ACCGCCGCCAGTGCCT-3′ (SEQ ID NO: 4), respectively. The mismatch ODN served as a control. Rats were injected intrathecally with antisense ODN (5 nmol 10 μl^−1) and mismatch ODN (5 nmol 10 μl^−1) using a 25-μl Hamilton syringe with 28-gauge needle once a day from day 0 (immediately after nerve injury) to day 6. On day 7, paw withdrawal threshold of antisense ODN- and mismatch ODN-treated rats were tested. After the test, to quantify the levels of P2X4R protein in the spinal cord in both groups using Western blot analysis, the membrane fraction from the ipsilateral spinal cord segments L4-L6 was prepared. For the experiments in which cultured microglia were administered intrathecally, the cultured microglia were pre-incubated with ATP (50 μM) or PBS for 1 hr at 37° C. immediately prior to administration. Microglia with their supernatant were injected intrathecally in normal rats and paw withdrawal threshold was tested 1, 3 and 5 hr later. TNP-ATP (10 μM) was preincubated with microglia starting 10 min prior to ATP application.

[3] = test system: normal rats; experiment: Tactile allodynia in normal rats after intrathecal administration of ATP-stimulated cultured microglia; assay type: in vivo, rat
Method: as §1
as §2, with “On day 7, paw withdrawal threshold of antisense ODN- and mismatch ODN-treated rats were tested.” left out, “For the experiments in which cultured microglia were administered intrathecally, the cultured microglia were pre-incubated with ATP (50 μM) or PBS for 1 hr at 37° C. immediately prior to administration. Microglia with their supernatant were injected intrathecally in normal rats and paw withdrawal threshold was tested 1, 3 and 5 hr later. TNP-ATP (10 μM) was preincubated with microglia starting 10 min prior to ATP application.” left out

[4] = test system: effects of α,β-methylene ATP; experiment: Check of biological activity against effects of α,β-methylene ATP in vitro and in vivo
Method: A unilateral L5 spinal nerve of male Wistar rats was tightly ligated and cut just distal to the ligature. To assess the mechanical allodynia, the calibrated von Frey filaments (0.4-15.1 g) were applied to the plantar surface of the hindpaw from below the mesh floor. The 50% paw withdrawal threshold was determined using the up-down method (Chaplan, S. R., Bach, F. W., Pogrel, J. W., Chung, J. M. & Yaksh, T. L. Quantitative assessment of tactile allodynia in the rat paw. J Neurosci Methods 53, 55-63, 1994). Rats were implanted with a PE-10 polyethylene tube to the lumber enlargement (Yaksh, T. L., Jessell, T. M., Gamse, R., Mudge, A. W. & Leeman, S. E. Intrathecal morphine inhibits substance P release from mammalian spinal cord in vivo. Nature 286, 155-157, 1980) for intrathecal injection of P2XR antagonists [2′,3′-O-(2,4,6-trinitrophenyl)adenosine 5′-triphosphate (TNP-ATP) (Sigma-RBI) and pyridoxalphosphate-6-azophenyl-2′,4′-disulphonic acid (PPADS) (Sigma-RBI)], P2X4R antisense or mismatch ODN. We confirmed that PPADS and TNP-ATP used in the present study show biological activity to inhibit effects of α,β-methylene ATP in vitro and in vivo. […] After the test, to quantify the levels of P2X4R protein in the spinal cord in both groups using Western blot analysis, the membrane fraction from the ipsilateral spinal cord segments L4-L6 was prepared. […]

[5] = test system: P2X4R protein; experiment: Western blot of P2X4R protein in spinal cord membrane fraction after intrathecal ODN treatment; assay type: in vivo, rat; details: 5 nmol intrathecal once a day for 7 days, immunoblot
Method: A unilateral L5 spinal nerve of male Wistar rats was tightly ligated and cut just distal to the ligature. To assess the mechanical allodynia, the calibrated von Frey filaments (0.4-15.1 g) were applied to the plantar surface of the hindpaw from below the mesh floor. The 50% paw withdrawal threshold was determined using the up-down method (Chaplan, S. R., Bach, F. W., Pogrel, J. W., Chung, J. M. & Yaksh, T. L. Quantitative assessment of tactile allodynia in the rat paw. J Neurosci Methods 53, 55-63, 1994). […] After the test, to quantify the levels of P2X4R protein in the spinal cord in both groups using Western blot analysis, the membrane fraction from the ipsilateral spinal cord segments L4-L6 was prepared. […]
The membrane fraction from spinal cord segments L4-L6 ipsilateral or contralateral to the nerve injury was used. […] The blots were detected using a chemiluminescence method (ECL system; Amersham) and exposed to autoradiography films (Hyperfilm-ECL; Amersham).

[6] = test system: P2X4R protein; experiment: Immunofluorescence intensity of P2X4R protein in individual dorsal horn microglia after ODN treatment; assay type: in vivo, rat; details: 5 nmol intrathecal once a day for 7 days
Description: (§3) Transverse L5 spinal cord sections (30 μm) were cut and processed for immunohistochemistry using P2X4R antibody (Alomone). Markers of microglia, OX42 (Chemicon) and iba1 (gifted from S. Kohsaka); astrocytes, GFAP (Boehringer Mannheim); spinal cord neurones, NeuN (Chemicon) and MAP2 (Chemicon) were used to identify the type of P2X4R-positive cells. To assess immunofluorescence staining of cells quantitatively, we measured the immunofluorescence intensity of the P2X4R or OX42 as the average pixel intensity within each cell. Full details of experimental methods are as follows.
(§4) Transverse L5 spinal cord sections (30 μm) were incubated for 2 hr at room temperature in a blocking solution (3% normal goat serum) and then incubated for 48 hr at 4° C. in the primary antibody for P2X4R (anti-P2X4 receptor, 1:500, Alomone). […] The spinal cord sections were analysed using a MicroRadiance Confocal Imaging System (Bio-Rad) and an Olympus IX70 microscope equipped for epifluorescence. […] Microglia, as identified by OX42 immunofluorescence were outlined, and the immunofluorescence intensity (using a 9-bit scale) of the P2X4R or OX42 was determined as the average pixel intensity within each cell. Background fluorescence intensity was determined and was subtracted from the value obtained for microglia.

[7] = test system: microglia in the dorsal horn; experiment: Number of microglia and OX42 immunofluorescence in dorsal horn after ODN treatment; assay type: in vivo, rat; details: 5 nmol intrathecal once a day for 7 days
Description: as §3, §4

[8] = test system: rat model of postoperative pain; details: administration at the incision area, effective only before surgical operation; cited from earlier work
[9] = test system: nociceptive behaviours; details: intrathecal 30 or 100 nmol; cited from earlier work
[10] = 30 nmol intrathecal 5 hr after ATP-stimulated microglia
[11] = 5 nmol intrathecal once a day for 7 days, tested day 7

CCOc1ccc(Nc2ccc(/C(=C3C=C/C(=[N+](/CC)Cc4cccc(S(=O)(=O)[O-])c4)C=C/3C)c3ccc(N(CC)Cc4cccc(S(=O)(=O)[O-])c4)cc3C)cc2)cc1.[Na+] [brilliant blue G]
ATP-evoked increase in 340/360 ratio (fura-2) ([1]; 100 nM): not altered

2′,3′-O-(2,4,6-Trinitrophenyl) Adenosine 5′-Triphosphate [TNP-ATP]
paw withdrawal threshold on the side contralateral to the nerve injury ([2]; 30 nmol intrathecal, 45 min after injection): 14.3 ± 0.8 g | time of peak increase in paw withdrawal threshold after injection ([2]; 30 nmol intrathecal, nerve-injured rats): about 45 min | effect on tactile allodynia ([2]; day 7, 30 nmol intrathecal, at peak of effect): reversed | dose producing half-maximum effect on paw withdrawal threshold ([2]; day 7, intrathecal): 8.1 nmol | paw withdrawal threshold 45 min after injection ([2]; day 7 after nerve injury, 30 nmol intrathecal): 14.6 ± 0.5 g | recovery of paw withdrawal threshold ([2]; day 14, 30 nmol intrathecal, 45 min after injection): 73% | dose producing half-maximum effect on paw withdrawal threshold ([2]; day 14, intrathecal): 15.5 nmol | paw withdrawal threshold 45 min after injection ([2]; day 14 after nerve injury, 30 nmol intrathecal): 11.6 ± 1.3 g | motor behaviour following administration ([2]; intrathecal): no alteration | effect on allodynia caused by ATP-stimulated microglia [3, 10]: reversed the allodynia | time of peak increase in paw withdrawal threshold after injection [3, 10]: 45 to 75 min | decrease in paw withdrawal threshold caused by ATP-stimulated microglia ([3]; 10 μM together with ATP (50 μM) in the microglia pre-incubation): prevented | ATP-evoked increase in 340/360 ratio (fura-2) ([1]; 10 μM): suppressed | biological activity on effects of α,β-methylene ATP [4]: inhibit

5′-ACCGCCGCCAGTGCCT-3′ (DNA, backbone and methylation of C not given here; end-capped with phosphorothioate linkages) [mismatch ODN]
paw withdrawal threshold compared with untreated controls [2, 11]: not different

Nc1ncnc2c1ncn2[C@@H]1O[C@H](COP(=O)(O)OP(=O)(O)OP(=O)(O)O)[C@@H](O)[C@H]1O [ATP, adenosine 5′-triphosphate]
paw withdrawal threshold after intrathecal administration ([3]; normal rats, ATP 50 μM, tested 1, 3 and 5 hr later): unaffected | 340/360 emission ratio for fura-2 ([Ca2+]i) ([1]; agonist 50 μM, 10 s): transient increase

5′-CAGCCCGCCATGGCTC-3′ (phosphorothioate end caps, number of linkages not given here) [P2X4R antisense ODN]
nerve injury-induced decrease in paw withdrawal threshold compared with mismatch ODN [2, 11]: significantly less | recovery of paw withdrawal threshold towards the baseline level prior to nerve injury [2, 11]: 47.4±8.3% | decrease of P2X4R protein level in spinal cord homogenates versus mismatch ODN [5]: 32.0±4.8% | decrease of immunofluorescence intensity of P2X4R protein in individual microglia versus mismatch ODN [6]: 37.1±0.2% | level of OX42 immunofluorescence per individual microglia versus mismatch ODN [7]: nor was there a difference | number of microglia in the dorsal horn versus mismatch ODN [7]: no difference

Cc1nc(N=Nc2ccc(S(=O)(=O)O)cc2S(=O)(=O)O)c(COP(=O)(O)O)c(C=O)c1O [PPADS, Pyridoxalphosphate-6-azophenyl-2′,4′-disulphonic acid]
effect on paw withdrawal threshold ([2]; day 7, 30 or 100 nmol intrathecal): no effect | effect on paw withdrawal threshold ([2]; day 14, 30 or 100 nmol intrathecal): no effect | ATP-evoked increase in 340/360 ratio (fura-2) ([1]; 10 μM): unaffected | biological activity on effects of α,β-methylene ATP [4]: inhibit | allodynia in a rat model of postoperative pain [8]: suppressed allodynia | nociceptive behaviours (intrathecal α,β-methylene ATP, second phase of formalin test, bee venom) [9]: suppress

Source: patent publication US20050074819A1, “Screening method of drug for treatment of neuropathic pain” (JAPAN HEALTH SCIENCES FOUNDATION, priority 2003, published 2005)
